In US9018370B2, “Derivatives of uridine phosphate and their uses in protein binding assays” (King's College London of Strand, priority 2009, dated 2015):

Legend:
GTB (H. sapiens) = assay: Titration of 3d with other GTs; type: binding
Protocol: (§1) Fluorescence intensity measurements with 3d were carried out in black NUNC F96 MicroWell polystyrene plates on a BMG labtech PolarStar microplate reader equipped with a 350±5 nm excitation filter and a 430±5 nm emission filter. The number of flashes per wells was set to 50 (gain: 2240; position delay: 0.2 s). Prior to readings, plates were incubated, with shaking, for 10 min at 30° C. (double orbital, shaking width 4 mm, 10 seconds). Results were visualised with BMG labtech data analysis software Mars 1.10 and analysed with GraFit version 5.0.10.
(§2) Samples were pipetted into the requisite wells of a black NUNC 96-well plate as shown in tables E1-E3, at the end of the description. Key: B—Tris/HCl buffer (50 mM, pH 7; 40 μL); F—fluorophore 3d (200 nM in Tris/HCl buffer; 40 μL); M—MnCl2 (10 mM in Tris/HCl buffer; […]); E—galactosyltransferase (in Tris/HCl buffer; 40 μL); I—inhibitor (in Tris/HCl buffer; 40 μL). Total volume/well: 200 μL. All experiments were carried out in triplicate, unless indicated otherwise.
(§3) To assess the generality of this new GT assay principle, we next repeated the above experiments with another four GalTs, including mammalian and bacterial enzymes with different acceptor specificities and reaction mechanisms. […] The experimental protocol was the same as in Example 2. The amino acid sequences for four GalTs used in the experiment, i.e. LgtC (N. meningitidis), Ggta1 (B. taurus), GTB (H. sapiens) and AA(Gly)B GTB mutant (H. sapiens) or references where the sequence listings can be found are given above. The amino acid sequence for β4GalT (H. pylori) can be found above and in the following reference: Endo, T., Koizumi, S., Tabata, K. & Ozaki, A. Glycobiology 10, 809-813 (2000).

[1] = system: AA(Gly)B GTB mutant (H. sapiens); assay: Titration of 3d with other GTs; type: binding
Protocol: as §1, §2, §3

β4GalT (H. pylori) = assay: Titration of 3d with other GTs; type: binding
Protocol: as §1, §2, §3

LgtC (N. meningitidis) = assay: Titration of 3d with other GTs; type: binding
Protocol: as §1, §2, §3

B. taurus α-1,3-GalT [2] = target: T1, B. taurus α-1,3-GalT (Bos taurus, UniProt P14769); assay: Donor kinetics of UDP-Gal derivatives with GalT, HPLC; type: biochemical; conditions: MnCl2 20 mM, MOPS pH 7.2, 37° C.
T1 construct: made in house
T1 sequence (P14769 whole entry): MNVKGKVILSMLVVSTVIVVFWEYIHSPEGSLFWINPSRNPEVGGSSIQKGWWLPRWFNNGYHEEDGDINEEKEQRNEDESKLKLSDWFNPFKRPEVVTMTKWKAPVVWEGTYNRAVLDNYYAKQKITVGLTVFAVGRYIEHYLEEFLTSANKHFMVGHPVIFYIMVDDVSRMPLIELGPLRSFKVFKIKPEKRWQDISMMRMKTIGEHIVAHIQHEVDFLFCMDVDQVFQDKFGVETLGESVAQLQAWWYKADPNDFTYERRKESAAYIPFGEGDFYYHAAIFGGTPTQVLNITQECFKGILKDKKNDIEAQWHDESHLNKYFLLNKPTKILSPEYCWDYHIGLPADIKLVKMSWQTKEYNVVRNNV
Protocol: J. Am. Chem. Soc. 122, 261-1269 (2000); Rich, J. R.; Szpacenko, A.; Palcic, M. M. & Bundle, D. R. Glycosyltransferase-Catalyzed Synthesis of Thiooligosaccharides. Angew. Chem. Int. Ed. […] ChemBioChem 9, 1632-1640 (2008). […] (total volume 100 μL, all concentrations are final concentrations). The reactions were stopped by cooling in dry ice. Samples were analysed immediately by HPLC on a PerkinElmer Series 200 machine equipped with a Supelcosil LC-18-T column (5 μm, 25 cm×4.6 mm), a column oven (set to 30° C.), and a diode array detector. Each sample (injection volume 40 μL) was eluted at 1.5 mL/min with a gradient of methanol (10-30%) against 0.5 M phosphate buffer (adjusted to pH 8 with triethylamine). […] Km and vmax values were determined by fitting data points to a Michaelis-Menten curve using GraFit 5.0.10.

B. taurus α-1,3-GalT [3] = target: T1, B. taurus α-1,3-GalT; assay: Microplate fluorescence titration / ligand-displacement assay with fluorophore 3d; type: binding
Protocol: The fluorescence emission of a given fluorophore is influenced by its microenvironment, although different fluorophores vary their fluorescence emissions to different extents on changing microenvironment.
as §1, §2

Ggta1 = target: T2, Ggta1 (Bos taurus, UniProt P14769); assay: Variation in fluorescence of 3d and analogues upon incubation with Ggta1; type: binding, B. taurus; conditions: various concentrations of Ggta1
T2 construct: made in house
T2 sequence (P14769 whole entry): as above
Protocol: as §1, §2
We also carried out an experiment on 3d (numbered 18e in FIG. 4) and different analogues of 3d, namely the nucleoside 5h, the nucleotide 6r and nucleoside diphosphate 22d, to show their variation in fluorescence on binding to Ggta1.
The synthesis of 5h, 6r and 22d are shown below. The protocol for the microplate/fluorescence experiments was the same as in Example 2.

[4] = Quantum yield determination of UDP-Gal derivatives 3a-d; type: physicochemical
Protocol: To determine quantum yields, for each absorbance and fluorescence spectrum the area under the curve (AUC) was calculated by numerical integration, applying the mid-point rule. For each compound, AUCabs and AUCfluo were then plotted over compound concentration according to AUCabs=A×[conc]+B (equation 1) and AUCfluo=A′×[conc]+B′ (equation 2). […] The quantum yields for reference compounds were used to calculate the general quantum yield φg for each compound 3a-d, according to φg=φref×(A′/A)/(A′/A)ref.

[5] = target: T3, Streptococcus thermophilus UDP-Gal 4′-epimerase (GalE) (Streptococcus thermophilus, UniProt P21977); assay: GalE-catalysed conversion of UDP-Gal into UDP-Glc, HPLC assay; type: biochemical
T3 construct: purchased Calbiochem
T3 sequence (P21977 whole entry): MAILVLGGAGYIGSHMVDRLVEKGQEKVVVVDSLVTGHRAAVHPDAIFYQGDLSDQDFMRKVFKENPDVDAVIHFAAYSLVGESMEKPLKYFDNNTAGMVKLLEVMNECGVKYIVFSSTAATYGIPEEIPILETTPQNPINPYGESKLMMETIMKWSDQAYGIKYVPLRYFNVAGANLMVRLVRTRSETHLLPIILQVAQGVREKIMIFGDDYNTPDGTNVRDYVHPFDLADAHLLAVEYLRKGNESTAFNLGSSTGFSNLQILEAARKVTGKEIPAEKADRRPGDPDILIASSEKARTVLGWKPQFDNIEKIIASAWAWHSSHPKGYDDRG
Protocol: The reactions were stopped by cooling in dry ice. […] Km and vmax values were determined by fitting data points to a Michaelis-Menten curve using GraFit 5.0.10. […] All experiments were carried out in triplicate.

a-1.4-GalT = assay: Titration of C-glycosidic fluorophore 2 with GalT and competition with ligands; type: binding

| SMILES | Fluorescence of 3d with enzyme (GTB (H. sapiens)) | Fluorescence of 3d with enzyme [1] | Fluorescence of 3d with enzyme (β4GalT (H. pylori)) | Fluorescence of 3d with enzyme (LgtC (N. meningitidis)) | Km (B. taurus α-1,3-GalT [2]) [µM] | kcat (B. taurus α-1,3-GalT [2]) [s⁻¹] | Fluorescence of 3d upon titration with enzyme (B. taurus α-1,3-GalT [3]; in the absence of Mn^2+) | Fluorescence of 3d upon titration with enzyme (B. taurus α-1,3-GalT [3]; in the presence of MnCl2, 200 nM ligand, Tris pH 7) | Variation in fluorescence on binding to Ggta1 (Ggta1) | Fluorescence (in words) [4] | Quantum yield relative to that of 3a [4] [fold] | Quantum yield relative to that of the parent UDP-Gal [4] [fold] | Quantum yield ([4]; in H2O) | Ki ([5]; Dixon plot, 232 μM UDP-Gal) [µM] | Use as substrate by GalE ([5]; co-incubation, HPLC) | Fluorescence of 2 upon titration with GalT (a-1.4-GalT) |
| --- | --- | --- | --- | --- | --- | --- | --- | --- | --- | --- | --- | --- | --- | --- | --- | --- |
| O=Cc1ccc(-c2cn([C@@H]3O[C@H](COP(=O)(O)OP(=O)(O)O[C@H]4O[C@H](CO)[C@H](O)[C@H](O)[C@H]4O)[C@@H](O)[C@H]3O)c(=O)[nH]c2=O)s1 [3d, 5-(5-Formylthien-2-yl)-UDP-α-D-galactose] | strong fluorescence quenching effect | strong fluorescence quenching effect | strong fluorescence quenching effect | strong fluorescence quenching effect | 13 ± 1 | 0.0019 | little or no fluorescence quenching | quenched in the presence of enzyme in a concentration-dependent manner | varied their intensity of luminescence with Ggta1 | much more strongly fluorescent | 25 | ~6000 | 0.26 | – | – | – |
| O=Cc1ccc(-c2cn([C@@H]3O[C@H](COP(=O)(O)OP(=O)(O)CC[C@H]4O[C@H](CO)[C@H](O)[C@H](O)[C@H]4O)[C@@H](O)[C@H]3O)c(=O)[nH]c2=O)s1 [compound 2, Bis(sodium) [2-(α-D-galactopyranosyl)-ethylphosphono]-5-(5-formylthien-2-yl)uridin-5′-yl phosphate] | – | – | – | – | – | – | – | – | – | – | – | – | – | 426 | does not use 2 as a substrate | quenched upon titration with a bacterial GalT |
